Entries after “also recorded” stand apart in the source; their conditions may differ. Structures can show the parent of a compound that is named as a salt.

For data set [1] the following is noted: cited from earlier work.
Data set [2] in a line: Arterial blood pressure monitored during intracarotid infusion. The settings on record: higher doses, 100 and 110 μg/kg/min.

On to `CC1=NS(=O)(=O)c2cc(Cl)ccc2N1` [diazoxide], for which the solubility in water result in data set [1] is recorded as “not easily dissolved in water”.
As to `CC(N/C(=N\C#N)Nc1ccncc1)C(C)(C)C` (racemic) [pinacidil, (+/−)-N-cyano-N′-4-pyridinyl-N″-(1,2,2-trimethylpropyl)-guanidine], the solubility in water result in data set [1] is “insoluble in water; also recorded: not easily dissolved in water”.
On to `O=c1[nH]c2cc(C(F)(F)F)ccc2n1-c1cc(C(F)(F)F)ccc1O` [NS-1619, 1,3-dihydro-1-[2-hydroxy-5-(trifluoromethyl)phenyl]-5-(trifluoromethyl)-2H-benzimidazol-2-one], for which the solubility in water entry in data set [1] is “not easily dissolved in water”. Besides, in data set [2], the arterial blood pressure result is given as “significant drop”.
On to `Nc1cc(N2CCCCC2)nc(N)[n+]1OS(=O)(=O)[O-]` [minoxidil sulfate], for which, in data set [1], the solubility in water result was “not easily dissolved in water”.
